Experimental data as given in US8476012B2, “Physiogenomic method for predicting metabolic and cardiovascular side effects of thiazolidinediones” (Genomas, Inc., priority 2008, dated 2013).

Columns and labels:
[1] = HbA1c level (efficacy indicator) in type 2 diabetes outpatients on thiazolidinedione therapy; type: in vivo, human; settings: average by covariate; type 2 diabetes outpatients treated ≧4 months; from most recent medical records
Procedure: (§1) Outpatients with type 2 diabetes treated between February and June 2007 with rosiglitazone ([…]) or pioglitazone (n=33) for ≧4 months at the Joslin Diabetes Center affiliate of The Hospital of Central Connecticut (THOCC) in New Britain, Conn. were recruited as volunteer subjects. There were no exclusionary criteria. Each subject provided informed written consent as approved by the THOCC Institutional Review Board.
Hemoglobin A1c: HbA1c levels were measured via ion exchange using the HPLC Variant II (BioRad Laboratories, Hercules Calif.).
(§2) Physiogenomic Analysis. Patients treated with rosiglitazone or pioglitazone were recruited from THOCC clinics and provided informed written consent as approved by the THOCC Institutional Review Board. For physiogenomic associations to HbA1c, body mass index and edema, genotype data were obtained on 88 patients, 55 on rosiglitazone and 33 on pioglitazone regimens. A standardized set of phenotypes were collected from the most recent medical records for each patient. Valid genotype data were obtained on the 88 patients. Extensive information on co-medications and disease history were also collected to control for environmental effects.
(§3) HbA1c was selected as an indicator for efficacy, and body mass index and edema as indicators of undesired side effect. […] The phenotypes were analyzed for covariate dependence on age, gender, ethnicity, and treatment.

[2] = parameters: species or system human; settings: in vivo
Source text: as §1
Clinical Assessment. Patient characteristics included age, height, weight, body mass index, and the presence/absence of edema as recorded by a physician.
as §2, with “Extensive information on co-medications and disease history were also collected to control for environmental effects.” left out
as §3

[3] = suggested by various meta analyses; since disputed; cited from earlier work

| SMILES | HbA1c [1] | BMI [2] | risk for myocardial infarction (MI) [3] |
| --- | --- | --- | --- |
| CCc1ccc(CCOc2ccc(CC3SC(=O)NC3=O)cc2)nc1 (stereo not drawn) [pioglitazone] | 7.4% | 33.4 | does not |
| CN(CCOc1ccc(CC2SC(=O)NC2=O)cc1)c1ccccn1 (stereo not drawn) [rosiglitazone] | 7.4% | 33.7 | may increase the risk for myocardial infarction |
